From ChEMBL document CHEMBL1201862, “PubChem BioAssay data set” (2004)
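Five concentrations, 48 hours, 96-well plates. At the GI50, growth is halved.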 The source made the active and inactive calls. Cut-off read from the data, not from the text of the source: active = GI50 up to about 1.1 µM and inactive = higher.

Experiments:
Assay in all cases: growth of human tumour cells (NCI), 48 h
786-0 = tested on: 786-0
COLO 205 = tested on: COLO 205
DU-145 = tested on: DU-145
HCT-116 = tested on: HCT-116
HCT-15 = tested on: HCT-15
KM12 = tested on: KM12
LOX IMVI = tested on: LOX IMVI
M14 = tested on: M14
Malme-3M = tested on: Malme-3M
NCI-H23 = tested on: NCI-H23
NCI-H522 = tested on: NCI-H522
OVCAR-3 = tested on: OVCAR-3
OVCAR-5 = tested on: OVCAR-5
SF-295 = tested on: SF-295
SK-MEL-28 = tested on: SK-MEL-28
SNB-19 = tested on: SNB-19
T47D = tested on: T47D
TK-10 = tested on: TK-10
UO-31 = tested on: UO-31
SK-OV-3 = tested on: SK-OV-3

Row | Compound | GI50 (786-0) | GI50 (COLO 205) | GI50 (DU-145) | GI50 (HCT-116) | GI50 (HCT-15) [µM] | GI50 (KM12) | GI50 (LOX IMVI) | GI50 (M14) | GI50 (Malme-3M) | GI50 (NCI-H23) | GI50 (NCI-H522) | GI50 (OVCAR-3) | GI50 (OVCAR-5) | GI50 (SF-295) | GI50 (SK-MEL-28) | GI50 (SNB-19) | GI50 (T47D) | GI50 (TK-10) | GI50 (UO-31) | GI50 (SK-OV-3)
1 | CC1C[C@]2(C)C(=O)N(c3ccccc3)C(=N)[C@@H]2N(C)c2ccccc21 (stereo partly drawn) | > 100 µM (inactive) | > 100 µM (inactive) | > 100 µM (inactive) | > 100 µM (inactive) | > 100 | > 100 µM (inactive) | > 100 µM (inactive) | > 100 µM (inactive) | > 100 µM (inactive) | > 100 µM (inactive) | > 100 µM (inactive) | 70.1 µM (inactive) | > 100 µM (inactive) | > 100 µM (inactive) | > 100 µM (inactive) | > 100 µM (inactive) | > 100 µM (inactive) | > 100 µM (inactive) | > 100 µM (inactive) | –
2 | O=C(Nc1ccccc1F)c1cc2ccc(O)cc2o/c1=N\c1ccccc1F | 1.79 µM (inactive) | 21.8 µM (inactive) | 1.95 µM (inactive) | 2.06 µM (inactive) | 2.47 | 1.98 µM (inactive) | 2.57 µM (inactive) | 2.55 µM (inactive) | 1.73 µM (inactive) | 2.17 µM (inactive) | 1.44 µM (inactive) | 2.1 µM (inactive) | 4.5 µM (inactive) | 2.84 µM (inactive) | 2.45 µM (inactive) | 4.25 µM (inactive) | 1.96 µM (inactive) | – | 1.93 µM (inactive) | 25.4 µM (inactive)
3 | COc1c2c(c3c(c1OC)c(=O)c1ccccc1n3C)OCO2 | > 100 µM (inactive) | > 100 µM (inactive) | > 100 µM (inactive) | > 100 µM (inactive) | > 100 | > 100 µM (inactive) | > 100 µM (inactive) | > 100 µM (inactive) | – | > 100 µM (inactive) | > 100 µM (inactive) | > 100 µM (inactive) | > 100 µM (inactive) | > 100 µM (inactive) | > 100 µM (inactive) | > 100 µM (inactive) | > 100 µM (inactive) | > 100 µM (inactive) | > 100 µM (inactive) | > 100 µM (inactive)
4 | CCOC(=O)C1(C/C=C/CBr)CCc2ccccc2C1=O (stereo not drawn) | 16.2 µM (inactive) | 17.2 µM (inactive) | 14 µM (inactive) | 13.3 µM (inactive) | 19.7 | 15.5 µM (inactive) | 6.37 µM (inactive) | 13.1 µM (inactive) | 19.1 µM (inactive) | 16.8 µM (inactive) | 12.6 µM (inactive) | – | 29 µM (inactive) | 17.3 µM (inactive) | 17.5 µM (inactive) | 14.4 µM (inactive) | 14.3 µM (inactive) | 10.4 µM (inactive) | 14.3 µM (inactive) | 19 µM (inactive)
5 | CCOC(=O)c1cc(-c2ccc([N+](=O)[O-])cc2)c([N+](=O)[O-])[nH]1 | 3.52 µM (inactive) | – | 2.96 µM (inactive) | 4.85 µM (inactive) | 2.9 | 7.19 µM (inactive) | – | > 10 µM (inactive) | > 10 µM (inactive) | 2.84 µM (inactive) | 3.33 µM (inactive) | 2.7 µM (inactive) | 5.47 µM (inactive) | 2.1 µM (inactive) | – | 2.91 µM (inactive) | 2.33 µM (inactive) | 4.22 µM (inactive) | 2.42 µM (inactive) | > 10 µM (inactive)
6 | C=C1C(=O)C([Si](C)(C)C)=C2C=C(C)C3(CC3)C12C (stereo not drawn) | 95.3 µM (inactive) | 14.2 µM (inactive) | > 100 µM (inactive) | 37.5 µM (inactive) | 35.8 | 38.3 µM (inactive) | 22.6 µM (inactive) | 39.8 µM (inactive) | 14.7 µM (inactive) | 46.6 µM (inactive) | 14 µM (inactive) | 29.2 µM (inactive) | > 100 µM (inactive) | 30.4 µM (inactive) | 58.1 µM (inactive) | > 100 µM (inactive) | > 100 µM (inactive) | 67.1 µM (inactive) | 43.8 µM (inactive) | –
7 | O=C1C(Cl)=C(OCCCCl)C(=O)c2c(O)ccc(O)c21 | 2.04 µM (inactive) | 1.53 µM (inactive) | 9.73 µM (inactive) | 1.85 µM (inactive) | 1.84 | 13.1 µM (inactive) | 1.76 µM (inactive) | 1.43 µM (inactive) | 1.74 µM (inactive) | 2.19 µM (inactive) | – | 2.42 µM (inactive) | 12.4 µM (inactive) | 6.17 µM (inactive) | 2.08 µM (inactive) | 18.3 µM (inactive) | 2.34 µM (inactive) | 3.12 µM (inactive) | 6.55 µM (inactive) | 21.5 µM (inactive)
8 | CC1=CC(=O)/C(=C/N2CCNC2=S)C(=O)O1 | > 100 µM (inactive) | > 100 µM (inactive) | > 100 µM (inactive) | > 100 µM (inactive) | > 100 | > 100 µM (inactive) | > 100 µM (inactive) | > 100 µM (inactive) | – | > 100 µM (inactive) | > 100 µM (inactive) | – | > 100 µM (inactive) | > 100 µM (inactive) | – | > 100 µM (inactive) | > 100 µM (inactive) | > 100 µM (inactive) | > 100 µM (inactive) | > 100 µM (inactive)
